We go through six compounds from patent US20190315823A1, “SMALL CATIONIC ANTI-BIOFILM AND IDR PEPTIDES” (priority 2013, published 2019).

The structures appear in SMILES notation. Several values for one entry are separate records, joined by “and”; a condition that tells them apart may be missing. Identical values can stand only once. Like-named read-outs stand apart in the source and are kept apart here. Peptide text beside a SMILES is read from it.

In one assay the test system is P. aeruginosa biofilms. The settings on record: P. aeruginosa biofilm. Here is the method: (§1) Peptides and various conventional antibiotics were analyzed by checkerboard titration into microtiter trays using CLSI methods (Wiegand, I., K. Hilpert, and R. E. W. Hancock. 2008. Nature Protocols 3:163-175), bacteria added and, after overnight incubation at 37° C., the residual biofilm assessed by the crystal violet method mentioned in the body of the grant, with an A595 of 0.2 considered as 100% biofilm inhibition. The effects of the peptide in reducing the minimal biofilm inhibitory concentration (MBIC) of the antibiotic and vice versa were assessed using the Fractional Inhibitory Concentration (FIC) method whereby ΣFTC=FICA+FICB=(CA/MICA)+(CB/MICB), where MBICA and MBICB are the MBICs of peptide A and antibiotic B alone, respectively, and CA and CB (expressed in μg/ml) are the MICs of the drugs in combination. This conventional clinical microbiology assay is interpreted as follows

The next assay relates to S. aureus biofilms. The assay is described as follows: checkerboard titration biofilm synergy (MBIC, FIC). In kind it is cell-based. The settings on record: for MBIC: compound alone; for Fold decrease in antibiotic concentration / antibiotic MIC: in the presence of peptide DJK5. Here is the method:
as §1

A further assay deals with E. coli biofilms. The assay is described as follows: checkerboard titration biofilm synergy (MBIC, FIC). The class given is cell-based. The settings on record: for MBIC: compound alone; for Fold decrease in antibiotic concentration: in the presence of peptide 1018; for Fold decrease in antibiotic concentration / antibiotic MIC: in the presence of peptide DJK5. Here is the method: as §1

Another assay has as its system A. baumannii biofilm. The assay is described as follows: checkerboard titration biofilm synergy (FIC). The class given is cell-based. The settings on record: for Fold decrease in antibiotic MIC in the presence of peptide: peptide DJK5. Here is the method:
as §1

A further assay deals with Salmonella biofilm. The assay is described as follows: checkerboard titration biofilm synergy (FIC). In kind it is cell-based. The conditions noted are these: for Fold decrease in antibiotic MIC in the presence of peptide: peptide DJK5. Here is the method:
as §1

The test system of a further assay is K. pneumoniae biofilm. The assay is described as follows: checkerboard titration biofilm synergy (FIC). The conditions noted are these: for Fold decrease in antibiotic MIC in the presence of peptide: peptide DJK5. In kind it is cell-based. On the procedure: as §1
Assay [1] concerns Pseudomonas aeruginosa (Pa) biofilm. The assay is described as follows: static abiotic solid surface (microtiter, crystal violet) / Bioflux biofilm inhibition screen. In kind it is cell-based. On the procedure:
FIG. 1. Identification of new anti-biofilm peptides active against P. aeruginosa using the microtiter plate screening method with crystal violet staining. […] As a control peptide 1037 was utilized [de la Fuente Nunez et al. 2011].
Methods of assessment of anti-biofilm activity—Biofilm formation was initially analyzed using a static abiotic solid surface assay as described elsewhere (de la Fuente-Nunez et al., 2012). Dilutions (1/100) of overnight cultures were incubated in BM2 biofilm-adjusted medium [62 mM potassium phosphate buffer (pH 7), 7 mM (NH4)2SO4, 2 mM MgSO4, 10 μM FeSO4, 0.4% (wt/vol) glucose, 0.5% (wt/vol) Casamino Acids], or a nutrient medium such as Luria Broth, in polypropylene microtiter plates (Falcon, United States) in the absence (control) or presence of peptide. Peptide was added at time zero (prior to adding the diluted, overnight cultures) in varying concentrations, and the decrease in biofilm formation was recorded at 22-46 h for most bacteria. Planktonic cells were removed, biofilm cells adhering to the side of the tubes were stained with crystal violet, and absorbance at 595 nm was measured using a microtiter plate reader (Bio-Tek Instruments Inc., United States). Some peptides were screened against two Gram negative organisms, P. aeruginosa and K. pneumoniae using a Bioflux apparatus (AutoMate Scientific, Berkeley, Calif.; http://www.autom8.com/bioflux_biofilm.html), which allows for the high-throughput, real-time analysis of biofilms.

The subject of assay [2] is methicillin resistant S. aureus (Sa) biofilm. The class given is cell-based, Staphylococcus aureus. The settings on record: peptide 5 μg/ml.
Setting [3] is: antibiotic in combination with peptide 1018.
[4] abbreviates: antibiotic in combination with peptide DJK5.
[5] abbreviates: in combination with peptide 1018.
[6] abbreviates: in combination with peptide DJK5.
Where [7] appears, read: in the presence of peptide 1018.

As for `NC[C@H]1O[C@H](O[C@H]2[C@H](O)[C@@H](O[C@H]3O[C@H](CO)[C@@H](O)[C@H](N)[C@H]3O)[C@H](N)C[C@@H]2N)[C@H](N)C[C@@H]1O` [Tobramycin], the FIC in the assay with P. aeruginosa biofilms (setting [3]) was 0.502 and 0.5; in the assay with P. aeruginosa biofilms (setting [4]), 0.51 and 0.5; in the assay on S. aureus biofilms (setting [3]) it was 0.52 and 0.5; in the assay on S. aureus biofilms (setting [4]), 1; in the assay with E. coli biofilms (setting [3]) it was 0.375 and 0.38; with E. coli biofilms (setting [4]), 0.5625 and 0.56. In addition, the FIC is recorded as 0.38 with A. baumannii biofilm (setting [3]); 0.56 with A. baumannii biofilm (setting [4]); 0.75 in the assay on Salmonella biofilm (setting [3]); 1.03 with Salmonella biofilm (setting [4]); 0.31 with K. pneumoniae biofilm (setting [3]); 0.75 in the assay on K. pneumoniae biofilm (setting [4]). For the same compound, the “Concentration of antibiotic at the FIC” value in the assay with P. aeruginosa biofilms (setting [5]) and in the assay on P. aeruginosa biofilms (setting [6]) was 1.6 µg/mL throughout. The results for the MBIC with S. aureus biofilms and in the assay on E. coli biofilms were more than 102.4 µg/mL and 6.4 µg/mL, respectively. In addition, the “concentration of antibiotic at FIC” value in the assay with S. aureus biofilms (setting [5]) is 1.6 µg/mL; in the assay on S. aureus biofilms (setting [6]) it was 1.6 µg/mL; in the assay on E. coli biofilms (setting [5]), 1.6 µg/mL; with E. coli biofilms (setting [6]), 0.4 µg/mL. For the same compound, the “Fold decrease in antibiotic concentration” value with S. aureus biofilms (setting [7]) was 64X; with E. coli biofilms it was 4X. Moreover, the “Fold decrease in antibiotic concentration / antibiotic MIC” value is 64X in the assay with S. aureus biofilms and 16X in the assay with E. coli biofilms. Also, the “Fold decrease in antibiotic MIC in the presence of peptide” value (“Fold decrease in antibiotic MIC” below) in the assay with A. baumannii biofilm stood at 16X; in the assay on Salmonella biofilm, 32X; in the assay with K. pneumoniae biofilm, 4X.

As to `CC[C@H](C)[C@H](N)C(=O)N[C@@H](CC(C)C)C(=O)N1CCC[C@H]1C(=O)N[C@@H](Cc1c[nH]c2ccccc12)C(=O)N[C@@H](CCCCN)C(=O)N[C@@H](Cc1c[nH]c2ccccc12)C(=O)N1CCC[C@H]1C(=O)N[C@@H](Cc1c[nH]c2ccccc12)C(=O)N[C@@H](Cc1c[nH]c2ccccc12)C(=O)N1CCC[C@H]1C(=O)N[C@@H](Cc1c[nH]c2ccccc12)C(=O)N[C@@H](CCCNC(=N)N)C(=O)N[C@@H](CCCNC(=N)N)C(N)=O` [Indolicidin, reference compound], the “% Biofilm Inhibition Pa” value in assay [1] (Pa) biofilm, 10 μg/ml) turned out to be 29%. Further, in assay [2], the “% Biofilm Inhibition Sa” value amounted to 48%.

With `CC(C)(O/N=C(\C(=O)N[C@@H]1C(=O)N2C(C(=O)[O-])=C(C[n+]3ccccc3)CS[C@H]12)c1csc(N)n1)C(=O)O` [Ceftazidime], the FIC in the assay on P. aeruginosa biofilms (setting [3]) is 0.38; in the assay on P. aeruginosa biofilms (setting [4]), 0.51 and 0.5; in the assay with S. aureus biofilms (setting [3]), 0.16; in the assay with S. aureus biofilms (setting [4]), 0.375 and 0.38; in the assay with S. aureus biofilms (antibiotic in combination with peptide DJK6), 0.4; in the assay with E. coli biofilms (setting [3]) it was 1. Also, the FIC was 0.542 and 0.54 in the assay on E. coli biofilms (setting [4]); 0.37 with A. baumannii biofilm (setting [3]); 0.75 in the assay on A. baumannii biofilm (setting [4]); 0.31 in the assay on Salmonella biofilm (setting [3]); 0.75 in the assay with Salmonella biofilm (setting [4]); 0.75 in the assay on K. pneumoniae biofilm (setting [3]). Moreover, the FIC in the assay with K. pneumoniae biofilm (setting [4]) worked out at 0.89. In addition, the “Concentration of antibiotic at the FIC” value amounted to 1.4 µg/mL in the assay on P. aeruginosa biofilms (setting [5]) and 0.8 µg/mL in the assay with P. aeruginosa biofilms (setting [6]). Further, the MBIC came to 256 µg/mL in the assay with S. aureus biofilms and 0.4 µg/mL with E. coli biofilms. Besides, the “concentration of antibiotic at FIC” value is 8-8 μg/ml in the assay with S. aureus biofilms (setting [5]), 32 µg/mL in the assay on S. aureus biofilms (setting [6]), 0.1 µg/mL in the assay on E. coli biofilms (setting [5]) and 0.2 µg/mL in the assay on E. coli biofilms (setting [6]). Further, the “Fold decrease in antibiotic concentration” value is 32X with S. aureus biofilms (setting [7]), 8 with S. aureus biofilms (in the presence of peptide DJK6) and 4X with E. coli biofilms. Besides, the “Fold decrease in antibiotic concentration / antibiotic MIC” value in the assay with S. aureus biofilms amounted to 8X; in the assay on E. coli biofilms, 2X. In addition, the “Fold decrease in antibiotic MIC” value came to 2X in the assay with A. baumannii biofilm, 4X with Salmonella biofilm and 16X with K. pneumoniae biofilm.

On to `CC[C@H](C)[C@H](N)C(=O)N[C@@H](CC(C)C)C(=O)N[C@@H](CCCCN)C(=O)N[C@@H](CCCCN)C(=O)N[C@@H](Cc1c[nH]c2ccccc12)C(=O)N1CCC[C@H]1C(=O)N[C@@H](Cc1c[nH]c2ccccc12)C(=O)N[C@@H](Cc1c[nH]c2ccccc12)C(=O)N1CCC[C@H]1C(=O)N[C@@H](Cc1c[nH]c2ccccc12)C(=O)N[C@@H](CCCNC(=N)N)C(=O)N[C@@H](CCCNC(=N)N)C(=O)N[C@@H](CCCCN)C(N)=O` [Peptide 11CN] (H-ILKKWPWWPWRRK-NH2; N-terminus assumed), for which, in assay [2], the “% Biofilm Inhibition Sa” value is 32%.

`CC[C@H](C)[C@H](NC(=O)[C@H](CCCNC(=N)N)NC(=O)[C@H](C)NC(=O)[C@@H](NC(=O)[C@H](CC(C)C)NC(=O)[C@H](CCCNC(=N)N)NC(=O)[C@H](CCCNC(=N)N)NC(=O)[C@@H](NC(=O)[C@@H](NC(=O)[C@H](CCCNC(=N)N)NC(=O)[C@@H](N)CCCCN)[C@@H](C)CC)C(C)C)C(C)C)C(=O)N[C@H](C(N)=O)C(C)C` [Peptide 1017] (H-KRIVRRLVARIV-NH2; N-terminus assumed): the “% Biofilm Inhibition Pa” value in assay [1] (peptide 10 μg/ml) is 26%. For the same compound, in assay [2], the “% Biofilm Inhibition Sa” value is listed as 21%.

`C[C@@H](O)[C@H]1C(=O)N2C(C(=O)O)=C(SCCN=CN)C[C@H]12` [Imipenem]: the FIC in the assay on P. aeruginosa biofilms (setting [3]) was 0.502 and 0.5; in the assay on P. aeruginosa biofilms (setting [4]), 0.51 and 0.5; in the assay with S. aureus biofilms (setting [3]), 0.25; in the assay on S. aureus biofilms (setting [4]) it was 0.52; in the assay on E. coli biofilms (setting [3]) it was 0.75; in the assay with E. coli biofilms (setting [4]), 1. In addition, the FIC is 0.53 with A. baumannii biofilm (setting [3]); 0.75 with A. baumannii biofilm (setting [4]); 1 in the assay on Salmonella biofilm (setting [3]); 1 with Salmonella biofilm (setting [4]); 0.53 in the assay on K. pneumoniae biofilm (setting [3]); 1 in the assay on K. pneumoniae biofilm (setting [4]). Further, the “Concentration of antibiotic at the FIC” value with P. aeruginosa biofilms (setting [5]) and in the assay with P. aeruginosa biofilms (setting [6]) was 0.8 µg/mL in each case. For the same compound, the MBIC in the assay with S. aureus biofilms is more than 102.4 µg/mL; in the assay with E. coli biofilms, 6.4 µg/mL. Besides, the “concentration of antibiotic at FIC” value with S. aureus biofilms (setting [5]) is 25.6 µg/mL; in the assay on S. aureus biofilms (setting [6]) it was 3.2 µg/mL; in the assay with E. coli biofilms (setting [5]), 1.6 µg/mL; in the assay on E. coli biofilms (setting [6]), 0.1 µg/mL. Moreover, the “Fold decrease in antibiotic concentration” value in the assay on S. aureus biofilms (setting [7]) and in the assay with E. coli biofilms was 4X in each case. Moreover, the “Fold decrease in antibiotic concentration / antibiotic MIC” value came out at 32X in the assay with S. aureus biofilms and 64X with E. coli biofilms. In addition, the “Fold decrease in antibiotic MIC” value was 2X with A. baumannii biofilm, 2X with Salmonella biofilm and 64X in the assay with K. pneumoniae biofilm.
